Source: PubChem BioAssay AID192 (DTP/NCI, 2004)
Where “and” joins values, the source holds several entries; their conditions need not be identical. Identical values can stand only once. Inconclusive results and toxic doses are left out. Numbered stars: 1 amine (or outer) side, 2 acyl side, 3 side chain; on linkers, the order of the positions; unused ones are H or OH. Peptide text beside a SMILES is read from it. ξ: configuration not given here. ξγGlu = O=C(O)C(CCC(=O)[*:2])N[*:1]

System: BDF1 mice, B16 melanoma ip, median survival T/C
Experiment: NCI In Vivo Anticancer Drug Screen. Data for tumor model B16 Melanoma (intraperitoneal) in B6D2F1 (BDF1) mice
Conditions: endpoint: median survival time, higher = longer survival
Procedure, shortened: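 In this screen, activity was judged from survival or tumor size in treated versus vehicle-treated tumor-bearing mice, reported as T/C.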

[1] = dose: 100.0 mg/kg/injection, schedule: Q01DX009 (ip), vehicle: saline
[2] = dose: 200.0 mg/kg/injection, schedule: Q01DX009 (ip), vehicle: saline
[3] = dose: 400.0 mg/kg/injection, schedule: Q01DX009 (ip), vehicle: saline
[4] = dose: 100.0 mg/kg/injection, schedule: Q01DX009 (ip), vehicle: Klucel (hydroxypropylcellulose) (HPC)
[5] = dose: 100.0 mg/kg/injection, schedule: Q04DX003 (ip), vehicle: Klucel (hydroxypropylcellulose) (HPC)
[6] = dose: 200.0 mg/kg/injection, schedule: Q01DX009 (ip), vehicle: Klucel (hydroxypropylcellulose) (HPC)
[7] = dose: 200.0 mg/kg/injection, schedule: Q04DX003 (ip), vehicle: Klucel (hydroxypropylcellulose) (HPC)
[8] = dose: 400.0 mg/kg/injection, schedule: Q01DX009 (ip), vehicle: Klucel (hydroxypropylcellulose) (HPC)
[9] = dose: 400.0 mg/kg/injection, schedule: Q04DX003 (ip), vehicle: Klucel (hydroxypropylcellulose) (HPC)
[10] = dose: 25.0 mg/kg/injection, schedule: Q01DX009 (ip), vehicle: saline
[11] = dose: 50.0 mg/kg/injection, schedule: Q01DX009 (ip), vehicle: saline
[12] = dose: 100.0 mg/kg/injection, schedule: Q04DX003 (ip), vehicle: saline with Tween-80
[13] = dose: 200.0 mg/kg/injection, schedule: Q04DX003 (ip), vehicle: saline with Tween-80
[14] = dose: 25.0 mg/kg/injection, schedule: Q01DX009 (ip), vehicle: Klucel (hydroxypropylcellulose) (HPC)
[15] = dose: 50.0 mg/kg/injection, schedule: Q01DX009 (ip), vehicle: Klucel (hydroxypropylcellulose) (HPC)
[16] = dose: 100.0 mg/kg/injection, schedule: Q01DX009 (ip), vehicle: saline with Tween-80
[17] = dose: 200.0 mg/kg/injection, schedule: Q01DX009 (ip), vehicle: saline with Tween-80
[18] = dose: 400.0 mg/kg/injection, schedule: Q01DX009 (ip), vehicle: saline with Tween-80
[19] = dose: 50.0 mg/kg/injection, schedule: Q01DX009 (ip), vehicle: saline with Tween-80

C=C(OC)C(Nc1cc(OC)c(OC)cc1C(=O)OC1CC(O[C@@H]2C(=O)C(NC(=O)OC)=C3/C(=C\CSSSC)[C@]2(O)C#C/C=C\C#C[C@@H]3OC2OC(C)C(NOC3CC(O)C(SC)C(C)O3)C(O)C2OC2CC(OC)C(NCCC)CO2)OC(C)C1O)OC (some centres not stated)
T/C (dose: 0.1 micrograms/kg/injection, schedule: Q01DX009 (ip), vehicle: methylcellulose (MC)): 178 % of control
T/C (dose: 0.2 micrograms/kg/injection, schedule: Q01DX009 (ip), vehicle: methylcellulose (MC)): 172 % of control
T/C (dose: 0.4 micrograms/kg/injection, schedule: Q01DX009 (ip), vehicle: methylcellulose (MC)): 175 % of control
T/C (dose: 0.4 micrograms/kg/injection, schedule: Q04DX003 (ip), vehicle: methylcellulose (MC)): 160 % of control
T/C (dose: 0.8 micrograms/kg/injection, schedule: Q01DX009 (ip), vehicle: methylcellulose (MC)): 182 % of control
T/C (dose: 1.6 micrograms/kg/injection, schedule: Q01DX009 (ip), vehicle: methylcellulose (MC)): 182 % of control
T/C (dose: 1.6 micrograms/kg/injection, schedule: Q04DX003 (ip), vehicle: methylcellulose (MC)): 168 % of control
T/C (dose: 3.2 micrograms/kg/injection, schedule: Q04DX003 (ip), vehicle: methylcellulose (MC)): 153 % of control
T/C (dose: 6.4 micrograms/kg/injection, schedule: Q04DX003 (ip), vehicle: methylcellulose (MC)): 106 % of control

CC(O)CN1CC(C)OC(C)C1 (configuration not stated)
T/C [1]: 97 % of control
T/C [2]: 90 % of control
T/C [3]: 97 % of control

CC(C)OC(=O)Nc1ccc(-c2ccc(NC(=O)OC(C)C)cc2)cc1
T/C [4]: 109 % of control
T/C [5]: 109 % of control
T/C [6]: 118 % of control
T/C [7]: 90 % of control
T/C [8]: 109 % of control
T/C [9]: 92 % of control

N[C@@H](Cc1ccc(O)c(O)c1)C(=O)O
T/C [10]: 109 % of control
T/C [11]: 98 % of control and 100 % of control
T/C [1]: 102 % of control and 104 % of control
T/C [2]: 102 % of control and 108 % of control
T/C [3]: 97 % of control and 104 % of control

NC(CCC(=O)NCC(=O)NCC(=O)O)C(=O)O (stereo not drawn) (ξγGlu-Gly-Gly-OH)
T/C [11]: 106 % of control
T/C [1]: 97 % of control
T/C [2]: 102 % of control
T/C [3]: 91 % of control

CCCCCCCCCCCCCCCC(C)(C)O
T/C [4]: 100 % of control
T/C [6]: 100 % of control
T/C [8]: 86 % of control

O=C(NO)N/N=C/c1ccccc1
T/C [12]: 106 % of control
T/C [13]: 104 % of control
T/C (dose: 400.0 mg/kg/injection, schedule: Q04DX003 (ip), vehicle: saline with Tween-80): 90 % of control

COc1cc2c(cc1OC)-c1ccc3cc4c(cc3c1N(C)C2)OCO4
T/C (dose: 5.0 mg/kg/injection, schedule: Q01DX009 (ip), vehicle: water): 103 % of control
T/C (dose: 10.0 mg/kg/injection, schedule: Q01DX009 (ip), vehicle: water): 102 % of control
T/C (dose: 20.0 mg/kg/injection, schedule: Q01DX009 (ip), vehicle: water): 100 % of control
T/C (dose: 40.0 mg/kg/injection, schedule: Q01DX009 (ip), vehicle: water): 101 % of control
T/C (dose: 80.0 mg/kg/injection, schedule: Q01DX009 (ip), vehicle: water): 102 % of control

CCC1CN2CCc3cc(OC)c(OC)cc3C2CC1CC1c2cc(OC)c(OC)cc2CCN1C(=O)C(Cc1c[nH]c2ccccc12)NC(=O)OC(C)(C)C (configuration not stated)
T/C (dose: 8.0 mg/kg/injection, schedule: Q04DX003 (ip), vehicle: saline with Tween-80): 102 % of control
T/C (dose: 16.0 mg/kg/injection, schedule: Q04DX003 (ip), vehicle: saline with Tween-80): 102 % of control
T/C (dose: 32.0 mg/kg/injection, schedule: Q04DX003 (ip), vehicle: saline with Tween-80): 100 % of control
T/C (dose: 64.0 mg/kg/injection, schedule: Q04DX003 (ip), vehicle: saline with Tween-80): 110 % of control
T/C (dose: 128.0 mg/kg/injection, schedule: Q04DX003 (ip), vehicle: saline with Tween-80): 89 % of control

CN(C)C(C#N)C(=O)c1ccccc1 (configuration not stated)
T/C [14]: 104 % of control
T/C [15]: 97 % of control
T/C [4]: 97 % of control

COc1cccc2c1C(=O)c1c(O)c3c(c(O)c1C2=O)C[C@@](O)(C(=O)CO)C[C@@H]3OC1CC(NC=O)C(O)C(C)O1 (some centres not stated)
T/C (dose: 1.56 mg/kg/injection, schedule: Q01DX009 (ip), vehicle: other): 118 % of control
T/C (dose: 6.25 mg/kg/injection, schedule: Q01DX009 (ip), vehicle: other): 185 % of control
T/C (dose: 12.5 mg/kg/injection, schedule: Q01DX009 (ip), vehicle: other): 171 % of control and 203 % of control
T/C (dose: 25.0 mg/kg/injection, schedule: Q01DX009 (ip), vehicle: other): 194 % of control
T/C (dose: 50.0 mg/kg/injection, schedule: Q01DX009 (ip), vehicle: other): 198 % of control and 259 % of control
T/C (dose: 100.0 mg/kg/injection, schedule: Q01DX009 (ip), vehicle: other): 259 % of control

OC(C#Cc1ccccc1)c1ccccc1 (configuration not stated)
T/C (dose: 50.0 mg/kg/injection, schedule: Q04DX003 (ip), vehicle: saline with Tween-80): 108 % of control
T/C [12]: 97 % of control
T/C [13]: 98 % of control

O=C(O)C1CC[N-]CC1.O=C(O)C1CC[N-]CC1.O=C(O)C1CC[N-]CC1.O=C(O)C1CC[N-]CC1.[Cl][Rh][Cl]
T/C [10]: 104 % of control
T/C [11]: 94 % of control
T/C [1]: 102 % of control

Nc1ncc(CNc2ccc(C(=O)NC(CCC(=O)O)C(=O)O)cc2)c(N)n1 (configuration not stated)
T/C (dose: 3.12 mg/kg/injection, schedule: Q01DX009 (ip), vehicle: Klucel (hydroxypropylcellulose) (HPC)): 107 % of control
T/C (dose: 6.25 mg/kg/injection, schedule: Q01DX009 (ip), vehicle: Klucel (hydroxypropylcellulose) (HPC)): 103 % of control
T/C (dose: 12.5 mg/kg/injection, schedule: Q01DX009 (ip), vehicle: Klucel (hydroxypropylcellulose) (HPC)): 111 % of control
T/C [14]: 114 % of control
T/C [15]: 108 % of control

NC(=O)C=C1c2ccccc2-c2ccccc21
T/C [14]: 100 % of control
T/C [15]: 100 % of control
T/C [4]: 94 % of control
T/C [6]: 88 % of control
T/C [8]: 86 % of control

Clc1ccc2c(c1)C([P+](c1ccccc1)(c1ccccc1)c1ccccc1)c1cc(Cl)cc(Cl)c1-2 (configuration not stated)
T/C [16]: 89 % of control
T/C [17]: 95 % of control
T/C [18]: 89 % of control

CS(=O)(=O)c1cc([N+](=O)[O-])cc([N+](=O)[O-])c1Cl
T/C (dose: 0.1 mg/kg/injection, schedule: Q01DX009 (ip), vehicle: saline): 93 % of control
T/C (dose: 0.2 mg/kg/injection, schedule: Q01DX009 (ip), vehicle: saline): 93 % of control
T/C (dose: 0.4 mg/kg/injection, schedule: Q01DX009 (ip), vehicle: saline): 100 % of control
T/C (dose: 0.8 mg/kg/injection, schedule: Q01DX009 (ip), vehicle: saline): 95 % of control
T/C (dose: 1.25 mg/kg/injection, schedule: Q01DX009 (ip), vehicle: saline with Tween-80): 91 % of control
T/C (dose: 2.5 mg/kg/injection, schedule: Q01DX009 (ip), vehicle: saline with Tween-80): 86 % of control

Cc1cc(C)c(NC(=O)NC(C)C)c(C)c1
T/C [5]: 100 % of control
T/C [7]: 90 % of control
T/C [9]: 87 % of control

Cc1ccc(S(=O)(=O)Oc2ccc(-c3ccc(Br)cc3)cc2)cc1
T/C [19]: 96 % of control
T/C [16]: 93 % of control
T/C [17]: 86 % of control
T/C [18]: 91 % of control

OCCOc1c(Cl)c(Cl)c(Cl)c(Cl)c1Cl
T/C (dose: 25.0 mg/kg/injection, schedule: Q01DX009 (ip), vehicle: saline with Tween-80): 100 % of control
T/C [19]: 92 % of control
T/C [16]: 97 % of control

CCOC(=O)c1c(NC(=O)CCC(=O)Nc2sc(C)c(C)c2C(=O)OCC)sc(C)c1C
T/C (dose: 0.09 mg/kg/injection, schedule: Q01DX009 (ip), vehicle: Klucel (hydroxypropylcellulose) (HPC)): 100 % of control
T/C (dose: 0.19 mg/kg/injection, schedule: Q01DX009 (ip), vehicle: Klucel (hydroxypropylcellulose) (HPC)): 95 % of control
T/C (dose: 0.39 mg/kg/injection, schedule: Q01DX009 (ip), vehicle: Klucel (hydroxypropylcellulose) (HPC)): 100 % of control
T/C (dose: 0.78 mg/kg/injection, schedule: Q01DX009 (ip), vehicle: Klucel (hydroxypropylcellulose) (HPC)): 89 % of control
T/C (dose: 1.56 mg/kg/injection, schedule: Q01DX009 (ip), vehicle: Klucel (hydroxypropylcellulose) (HPC)): 95 % of control
